Assay results as given in patent US20230323028A1, “ADHESIVE PHOTOPROTECTIVE COMPOUNDS AND USES THEREOF” (SKINOSIVE, priority 2019, published 2023).

Assays:
[1] = Bioadhesion in liquid phase: binding to cysteine, assayed by HPLC; conditions: 1 to 2 minutes, Ethanol-1×PBS pH 6.8 (pH 6.0 for compound #23)
Protocol: The compounds bio adhesion was carried out in solution, for the protein binding, and for the specific binding of sulfhydryl-reactive chemical groups of cysteine. The compounds were mixed either with an equimolar solution of cysteine (two molar equivalent solution of cysteine for the compounds including two maleimides) or an excess of cysteine solution (five or ten times molar compound concentration) and were incubated 1 to 2 minutes in an Ethanol-1×PBS, pH 6.8 solution and in Ethanol-1×PBS, pH 6.0 solution for the compound #23.
The compound and the compound bound to the cysteine were identified by LC-MSD (Agilent 1260 Infinity II equipped with an Uptisphere strategy C18 or SunFire C18 column) and assayed by HPLC using an Agilent Infinity II Prime UHPLC UV detector system. The separation was achieved by using a gradient phase of water and acetonitrile on an Agilent Poroshell 120 EC-C18 column (3×100 mm, 2.7 μM).

[2] = λmax UV absorbance in solution; type: physicochemical
Protocol: λmax UV absorbance of diethylamino hydroxybenzoyl hexyl benzoate in ethanol/DMSO 9/1 was measured at 357 nm and λmax UV absorbance of Compound #16 was measured at 357 nm.
λmax UV absorbance of diethylamino hydroxybenzoyl hexyl benzoate in ethanol/DMSO 9/1 was measured at 357 nm and λmax UV absorbance of Compound #17 was measured at 357 nm.
λmax UV absorbance of Octocrylene in ethanol/DMSO 9/1 was measured at 305 nm and λmax UV absorbance of Compound #18 was measured at 293 nm.
λmax UV absorbance of Octocrylene in ethanol/DMSO 9/1 was measured at 305 nm and λmax UV absorbance of Compound #19 was measured at 308 nm.
λmax UV absorbance of Ecamsule in Ethanol/H2O/DMSO 5/3/2 was measured at 341 nm and λmax UV absorbance of Compound #20 was measured at 344 nm.
λmax UV absorbance of bemotrizinol in ethanol/benzyl alcohol/DMSO/Phenoxyethanol 63/18/10/9 was measured at 342 nm and λmax UV absorbance of Compound #21 was measured at 342 nm.
λmax UV absorbance of Octocrylene in ethanol was measured at 304 nm and Amax UV absorbance of Compound #23 was measured at 304 nm.

[3] = Adhesion on thiolated polylysine matrix (UV absorbance of coated 96-well microplates); conditions: UV absorbance at 300 nm; overnight incubation in ethanol/PBS (90%/10%); washed 10 times with ethanol
Protocol: (§1) Polylysine and Polylysine enriched in SH by thiolation of primary amines using Traut's reagent were used for coating 96-well microplates. Compound #23 (OOM) incubated overnight under orbital agitation on the different matrices (n=3 for each condition) (uncoated wells were used as negative controls), in an ethanol/PBS (90%/10%) solution. After incubation, each microplate well was thoroughly washed 10 times with ethanol, before measuring UV absorbance. Whole UV/Visible absorbance spectrum from 220 to 1000 nm were measured in the center of each microplate well. In addition, specific UV absorbance at 300 nm was measured by matrix scan over the whole the well as a 10×10 matrix.

pig skin = experiment: UVB protection ex vivo on pig skin by autofluorescence quenching; conditions: for UVB Fluorescence (Ex300/Em460), autofluorescence of pig skin: 4 h incubation at 37° C. in Dottisol, Mean ± SD, N = 3
Protocol: UVB protection has been assessed ex vivo on pig skin by measuring the autofluorescence quenching. OOM (Compound #23) and OCR (Octocrylene) were solubilized at the same molar concentration in Dottisol (isosorbide dimethyl ether), then covered 6.25 cm^2 skin square and incubated 4 hours at 37° C., washed or not with 10 mL Ethanol for 5 min on agitation. Then 7 mm diameter skin punches were cut and placed in a black 96-well plate. UVB protection was measured after respectively an excitation at 300 nm and a fluorescence emission was read at 460 nm.

[4] = Adhesion on polylysine matrix, non thiolated (UV absorbance of coated 96-well microplates); conditions: UV absorbance at 300 nm; overnight incubation in ethanol/PBS (90%/10%); washed 10 times with ethanol
Protocol: as §1

[5] = equimolar cysteine:compound solution (two molar equivalents for compounds with two maleimides)
[6] = excess of cysteine (five or ten times molar compound concentration)
[7] = in ethanol/benzyl alcohol/DMSO/Phenoxyethanol 63/18/10/9
[8] = EtOH Wash (10 mL Ethanol, 5 min)

CCN(CC)c1ccc(C(=O)c2ccccc2C(=O)OCCOCCNC(=O)CCN2C(=O)C=CC2=O)c(O)c1 [Compound #16, 2-[4-(diethylamino)-2-hydroxybenzoyl]-benzoic acid, 2-[2-[3-(2,5-dioxopyrrol-1-yl)propanoylamino]ethoxy]ethyl ester]
Cysteine-bound compound [1, 5]: 75%
Free compound [1, 5]: 25%
Cysteine-bound compound [1, 6]: 92%
Free compound [1, 6]: 8%
λmax UV absorbance ([2]; in ethanol/DMSO 9/1): 357 nm

CCN(CC)c1ccc(C(=O)c2ccccc2C(=O)OCCNC(=O)CCN2C(=O)C=CC2=O)c(O)c1 [Compound #17, 2-[4-(diethylamino)-2-hydroxy-benzoyl]benzoic acid, 2-[3-(2,5-dioxopyrrol-1-yl)propanoylamino]ethyl ester]
Cysteine-bound compound [1, 5]: 78%
Free compound [1, 5]: 22%
λmax UV absorbance ([2]; in ethanol/DMSO 9/1): 357 nm

N#CC(C(=O)NCCNC(=O)CCN1C(=O)C=CC1=O)=C(c1ccccc1)c1ccccc1 [Compound #18, 2-cyano-N-[2-[3-(2,5-dioxopyrrol-1-yl)propanoylamino]ethyl]-3,3-diphenyl-prop-2-enamide]
Cysteine-bound compound [1, 5]: 73%
Free compound [1, 5]: 27%
Cysteine-bound compound [1, 6]: 99%
Free compound [1, 6]: 1%
λmax UV absorbance ([2]; in ethanol/DMSO 9/1): 293 nm

N#CC(C(=O)OCCS(=O)(=O)CCNC(=O)CCN1C(=O)C=CC1=O)=C(c1ccccc1)c1ccccc1 [Compound #19, 2-cyano-3,3-diphenyl-prop-2-enoate, 2-[2-[3-(2,5-dioxopyrrol-1-yl)propanoylamino]ethylsulfonyl]ethyl ester]
Cysteine-bound compound [1, 5]: 71%
Free compound [1, 5]: 29%
λmax UV absorbance ([2]; in ethanol/DMSO 9/1): 308 nm

CC1(C)C2CCC1(CS(=O)(=O)NCCNC(=O)CCN1C(=O)C=CC1=O)C(=O)/C2=C\c1ccc(/C=C2\C(=O)C3(CS(=O)(=O)NCCNC(=O)CCN4C(=O)C=CC4=O)CCC2C3(C)C)cc1 [Compound #20, 3-(2,5-dioxopyrrol-1-yl)-N-[2-[[(3Z)-3-[[4-[(Z)-[4-[2-[3-(2,5-dioxopyrrol-1-yl)propanoylamino]ethylsulfamoylmethyl]-7,7-dimethyl-3-oxo-norbornan-2-ylidene]methyl]phenyl]methylene]-7,7-dimethyl-2-oxo-norbornan-1-yl]methylsulfonylamino]ethyl]propanamide]
Cysteine-bound compound [1, 5]: 85%
Free compound [1, 5]: 15%
Cysteine-bound compound [1, 6]: 100%
Free compound [1, 6]: 0%
λmax UV absorbance ([2]; in Ethanol/H2O/DMSO 5/3/2): 344 nm

COc1ccc(-c2nc(-c3ccc(OCCCNC(=O)CCN4C(=O)C=CC4=O)cc3O)nc(-c3ccc(OCCCNC(=O)CCN4C(=O)C=CC4=O)cc3O)n2)cc1 [Compound #21, 3-(2,5-dioxopyrrol-1-yl)-N-[3-[4-[4-[4-[3-[3-(2,5-dioxopyrrol-1-yl)propanoylamino]propoxy]-2-hydroxy-phenyl]-6-(4-methoxyphenyl)-1,3,5-triazin-2-yl]-3-hydroxy-phenoxy]propyl]propanamide]
λmax UV absorbance [2, 7]: 342 nm

N#CC(C(=O)OCCCCCCCCNC(=O)CCN1C(=O)C=CC1=O)=C(c1ccccc1)c1ccccc1 [Compound #23, 8-(3-(2,5-dioxo-2,5-dihydro-1H-pyrrol-1-yl)propanamido)octyl 2-cyano-3,3-diphenylacrylate]
bio adhesion on thiolated polylysine matrix [3]: showed a bio adhesion
UVB Fluorescence (Ex300/Em460), autofluorescence of pig skin (pig skin; [8]): 34870 ± 2729
UVB Fluorescence (Ex300/Em460), autofluorescence of pig skin (pig skin; No Wash): 25544 ± 3797
reduction of UVB protection after ethanol wash compared to the initial protection before washing (pig skin; ethanol wash): 30%
bio adhesion on pig skin (conclusion) (pig skin; retention of UVB protection after ethanol wash): bio adhesive
UVB protection of the pig skin compared with octocrylene (OCR) (pig skin; same molar concentration, no wash): more than two times higher
bioadhesion on polylysine matrix (non thiolated) [4]: no bioadhesion
Cysteine-bound compound [1, 5]: 100%
Free compound [1, 5]: 0%
Cysteine-bound compound [1, 6]: 100%
Free compound [1, 6]: 0%
λmax UV absorbance ([2]; in ethanol): 304 nm

CC1(C)C2CCC1(CS(=O)(=O)O)C(=O)C2=Cc1ccc(C=C2C(=O)C3(CS(=O)(=O)O)CCC2C3(C)C)cc1 [Ecamsule, terephtalylidene dicamphor sulfonic acid, reference compound]
λmax UV absorbance ([2]; in Ethanol/H2O/DMSO 5/3/2): 341 nm

CCCCC(CC)COC(=O)C(C#N)=C(c1ccccc1)c1ccccc1 (stereo not shown) [Octocrylene, reference compound]
bio adhesion on thiolated polylysine matrix [3]: did not show a bio adhesion
UVB Fluorescence (Ex300/Em460), autofluorescence of pig skin (pig skin; [8]): 201968 ± 11493
UVB Fluorescence (Ex300/Em460), autofluorescence of pig skin (pig skin; No Wash): 64781 ± 3246
UVB protection after the ethanol washing step (pig skin; ethanol wash): corresponds to the unprotected control
λmax UV absorbance ([2]; in ethanol): 304 nm
λmax UV absorbance ([2]; in ethanol/DMSO 9/1): 305 nm

CCCCC(CC)COc1ccc(-c2nc(-c3ccc(OC)cc3)nc(-c3ccc(OCC(CC)CCCC)cc3O)n2)c(O)c1 (stereo not shown) [bemotrizinol, reference compound]
λmax UV absorbance [2, 7]: 342 nm

CCCCCCOC(=O)c1ccccc1C(=O)c1ccc(N(CC)CC)cc1O [diethylamino hydroxybenzoyl hexyl benzoate, reference compound]
λmax UV absorbance ([2]; in ethanol/DMSO 9/1): 357 nm
